This passage reports GI50 and TGI results from PubChem BioAssay (NCI).

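Five concentrations, 48 hours, 96-well plates. Here, GI50 denotes the concentration required for 50% inhibition of growth. The concentration for full growth arrest is given as TGI.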

Test systems include SNB-19 CNS; HOP-92 NSCLC; SF-539 CNS; SW-620 colon; SN12C renal; OVCAR-3 ovarian; UACC-62 melanoma; PC-3 prostate; COLO 205 colon; OVCAR-5 ovarian.
Test in all cases: DTP human tumour cell line panel, 48 h

As usually defined, the GI50 is the concentration that inhibits growth by half. The term TGI denotes the concentration at which net growth stops. Low readings indicate more potent growth arrest, high ones less potent growth arrest. For the compound `Cc1ncsc1-c1ccc(CNC(=O)[C@@H]2C[C@@H](O)CN2C(=O)[C@@H](NC(=O)C2(C#N)CC2)C(C)(C)C)cc1`, the GI50 in the experiment on SNB-19 CNS was over 100 µM; in the experiment with HOP-92 NSCLC, 70.4 µM; with SF-539 CNS, over 100 µM; in the experiment with SW-620 colon it was over 100 µM; in the experiment on SN12C renal, over 100 µM; in the experiment with OVCAR-3 ovarian it was over 100 µM. For the same compound, the GI50 in the experiment with UACC-62 melanoma was 62.6 µM; with PC-3 prostate, over 100 µM; in the experiment on COLO 205 colon, over 100 µM; in the experiment with OVCAR-5 ovarian, over 100 µM. The TGI in the experiment on SNB-19 CNS, in the experiment on HOP-92 NSCLC, in the experiment with SF-539 CNS, with SW-620 colon, in the experiment with SN12C renal and with OVCAR-3 ovarian was over 100 µM each time. Moreover, the TGI in the experiment on UACC-62 melanoma, in the experiment on PC-3 prostate, in the experiment on COLO 205 colon and in the experiment with OVCAR-5 ovarian was over 100 µM each time.
Regarding `COc1ccc(-c2cc(-c3ccc(O)cc3)nc3n[nH]c(N)c23)cc1`, the GI50 in the experiment with SNB-19 CNS was 33.3 µM; with HOP-92 NSCLC, 11.9 µM; in the experiment on SF-539 CNS, 14.7 µM; with SW-620 colon it was 15.6 µM; in the experiment with SN12C renal, 19.2 µM; in the experiment on OVCAR-3 ovarian it was 13.5 µM. Further, the GI50 in the experiment with UACC-62 melanoma was 17.2 µM; in the experiment on PC-3 prostate it was 29.1 µM; in the experiment on COLO 205 colon, 14.6 µM; in the experiment with OVCAR-5 ovarian, 15.1 µM. Moreover, the TGI is over 100 µM in the experiment with SNB-19 CNS; 28.7 µM with HOP-92 NSCLC; 28.6 µM in the experiment with SF-539 CNS; 38.1 µM in the experiment on SW-620 colon; 36.5 µM in the experiment on SN12C renal; 31.7 µM with OVCAR-3 ovarian. In addition, the TGI with UACC-62 melanoma is 34.5 µM; with PC-3 prostate, over 100 µM; with COLO 205 colon it was 32.4 µM; in the experiment with OVCAR-5 ovarian it was 48.2 µM.
In the case of `COc1cnc2c(c1)C(=O)c1c-2n(CCCNC(C)C)c(=O)c2cc(F)ccc12`, the GI50 in the experiment with SNB-19 CNS was 0.179 µM; in the experiment on HOP-92 NSCLC, 0.284 µM; with SF-539 CNS, 0.245 µM; in the experiment with SW-620 colon, 0.122 µM; in the experiment on SN12C renal, 0.164 µM; in the experiment on OVCAR-3 ovarian, 0.19 µM. Moreover, the GI50 is 0.271 µM in the experiment with UACC-62 melanoma, 0.281 µM in the experiment with PC-3 prostate, 0.0905 µM in the experiment with COLO 205 colon and 0.277 µM in the experiment on OVCAR-5 ovarian. Further, the TGI with SNB-19 CNS amounted to 1.32 µM; with HOP-92 NSCLC it was 2.54 µM; in the experiment on SF-539 CNS, 0.703 µM; in the experiment on SW-620 colon it was 1.33 µM; with SN12C renal it was 0.831 µM; with OVCAR-3 ovarian it was 1.03 µM. The TGI stood at 1.27 µM with UACC-62 melanoma, 2.55 µM with PC-3 prostate, 0.643 µM in the experiment with COLO 205 colon and 0.856 µM with OVCAR-5 ovarian.
Take `CCCCCCCCCCCCOC1C(C(CC(=O)N2CCN(c3cccc(C(F)(F)F)c3)CC2)NS(=O)(=O)c2cc(Cl)cc(Cl)c2)OC2OC(C)(C)OC21` (stereo not given): the GI50 in the experiment on SNB-19 CNS, with HOP-92 NSCLC, in the experiment with SF-539 CNS, with SW-620 colon, in the experiment with SN12C renal and with OVCAR-3 ovarian was over 100 µM throughout. The GI50 with UACC-62 melanoma is over 100 µM; in the experiment with PC-3 prostate, over 100 µM; in the experiment with COLO 205 colon, over 100 µM; with OVCAR-5 ovarian, over 37.5 µM. For the same compound, the TGI in the experiment on SNB-19 CNS, in the experiment with HOP-92 NSCLC, in the experiment with SF-539 CNS, in the experiment on SW-620 colon, in the experiment on SN12C renal and in the experiment with OVCAR-3 ovarian was over 100 µM each time. Further, the TGI in the experiment on UACC-62 melanoma, in the experiment with PC-3 prostate, in the experiment with COLO 205 colon and in the experiment on OVCAR-5 ovarian was over 100 µM throughout.
For `CCS(=O)(=O)Nc1cccc(Nc2c3cccc(C)c3nc3c(C)cccc23)c1OC`, the GI50 in the experiment with SNB-19 CNS is 0.572 µM; in the experiment on HOP-92 NSCLC, 0.399 µM; in the experiment with SF-539 CNS, 0.708 µM; in the experiment with SW-620 colon, 0.979 µM; in the experiment on SN12C renal, 0.374 µM; with OVCAR-3 ovarian it was 4.59 µM. Besides, the GI50 is 0.635 µM in the experiment with UACC-62 melanoma, 1.67 µM in the experiment with PC-3 prostate, 2.56 µM in the experiment on COLO 205 colon and 3.86 µM in the experiment with OVCAR-5 ovarian. Besides, the TGI in the experiment on SNB-19 CNS is over 88.3 µM; in the experiment with HOP-92 NSCLC, 7.4 µM; in the experiment on SF-539 CNS it was 6.23 µM; in the experiment on SW-620 colon, over 100 µM; in the experiment on SN12C renal, 9.84 µM; in the experiment with OVCAR-3 ovarian it was 25 µM. Further, the TGI in the experiment on UACC-62 melanoma is over 100 µM; in the experiment on PC-3 prostate, 19.2 µM; with COLO 205 colon, over 100 µM; with OVCAR-5 ovarian, 41.5 µM.
For `O=c1c2ccccc2c2ccccc2c(=O)n1Cc1ccc2c(c1)OCO2`, the TGI is over 100 µM with SNB-19 CNS; over 100 µM in the experiment on HOP-92 NSCLC; over 94.5 µM in the experiment with SF-539 CNS; over 100 µM in the experiment on SW-620 colon; over 100 µM in the experiment on SN12C renal; over 100 µM with OVCAR-3 ovarian. For the same compound, the TGI with UACC-62 melanoma, with PC-3 prostate, in the experiment on COLO 205 colon and in the experiment on OVCAR-5 ovarian was over 100 µM throughout.
Turning to `O=C(CCC(C(=O)c1ccccc1)c1ccccc1)c1ccccc1` (stereo not given), the GI50 with SNB-19 CNS is 73.8 µM; with HOP-92 NSCLC it was 3.4 µM; in the experiment with SF-539 CNS, 52 µM; with SW-620 colon, 3.75 µM; in the experiment on SN12C renal, 20.2 µM; with OVCAR-3 ovarian, 5.78 µM. Also, the GI50 with UACC-62 melanoma was 7.15 µM; with PC-3 prostate it was 7.94 µM; in the experiment on COLO 205 colon it was 8.8 µM; in the experiment with OVCAR-5 ovarian, 80.4 µM. Further, the TGI is over 100 µM with SNB-19 CNS; 72.2 µM in the experiment with HOP-92 NSCLC; over 100 µM with SF-539 CNS; over 100 µM in the experiment with SW-620 colon; over 100 µM with SN12C renal; over 100 µM in the experiment with OVCAR-3 ovarian. For the same compound, the TGI in the experiment on UACC-62 melanoma, with PC-3 prostate, with COLO 205 colon and in the experiment with OVCAR-5 ovarian was over 100 µM each time.
Regarding `CN(C)CCCNC(=O)c1cncnc1Nc1ccc(OCc2cccc(F)c2)c(Cl)c1`, the GI50 is 1.72 µM in the experiment on SNB-19 CNS; 1.33 µM with HOP-92 NSCLC; 1.77 µM in the experiment on SF-539 CNS; 1.85 µM in the experiment on SW-620 colon; 1.67 µM in the experiment with SN12C renal; 1.49 µM in the experiment on OVCAR-3 ovarian. For the same compound, the GI50 with UACC-62 melanoma was 1.82 µM; in the experiment with PC-3 prostate it was 1.58 µM; in the experiment on COLO 205 colon it was 1.79 µM; in the experiment with OVCAR-5 ovarian it was 1.67 µM. Moreover, the TGI turned out to be 3.11 µM with SNB-19 CNS; 3.16 µM in the experiment on HOP-92 NSCLC; 3.15 µM in the experiment with SF-539 CNS; 3.32 µM in the experiment on SW-620 colon; 3.14 µM with SN12C renal; 2.88 µM in the experiment on OVCAR-3 ovarian. The TGI in the experiment with UACC-62 melanoma is 3.22 µM; in the experiment with PC-3 prostate it was 3.11 µM; with COLO 205 colon it was 3.57 µM; in the experiment with OVCAR-5 ovarian, 3.07 µM.
